Results reported in ChEMBL document CHEMBL1201862, “PubChem BioAssay data set” (2004).
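Cells were grown in 96-well plates and exposed to each compound for 48 hours at five concentrations; endpoints were interpolated linearly between bracketing concentrations, or set to the highest concentration if not reached. GI50 is the concentration that inhibits growth by half.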 Calls of active or inactive are those of the source. No stated cut-off is given here; in the data, active = GI50 up to about 1.1 µM and inactive = higher.

Assays:
Experiment in all cases: DTP human tumour cell line panel, 48 h
786-0 = test system: 786-0
A498 = test system: A498
A549 = test system: A549
ACHN = test system: ACHN
BT-549 = test system: BT-549
CAKI-1 = test system: CAKI-1
CCRF-CEM = test system: CCRF-CEM
COLO 205 = test system: COLO 205
DU-145 = test system: DU-145
EKVX = test system: EKVX
HCC 2998 = test system: HCC 2998
HCT-116 = test system: HCT-116
HCT-15 = test system: HCT-15
HL-60 = test system: HL-60
HOP-62 = test system: HOP-62
HOP-92 = test system: HOP-92
HT-29 = test system: HT-29
Hs-578T = test system: Hs-578T
IGROV-1 = test system: IGROV-1
K562 = test system: K562
KM12 = test system: KM12
LOX IMVI = test system: LOX IMVI
M14 = test system: M14
MCF7 = test system: MCF7
MDA-MB-231 = test system: MDA-MB-231
MDA-MB-435 = test system: MDA-MB-435
MDA-N = test system: MDA-N
MOLT-4 = test system: MOLT-4
NCI-H226 = test system: NCI-H226
NCI-H23 = test system: NCI-H23
NCI-H460 = test system: NCI-H460
NCI-H522 = test system: NCI-H522
NCI/ADR-RES = test system: NCI/ADR-RES
OVCAR-3 = test system: OVCAR-3
OVCAR-4 = test system: OVCAR-4
OVCAR-5 = test system: OVCAR-5
OVCAR-8 = test system: OVCAR-8
PC-3 = test system: PC-3
RPMI-8226 = test system: RPMI-8226
RXF 393 = test system: RXF 393
SF-268 = test system: SF-268
SF-295 = test system: SF-295
SF-539 = test system: SF-539
SK-MEL-28 = test system: SK-MEL-28
SK-MEL-2 = test system: SK-MEL-2
SK-MEL-5 = test system: SK-MEL-5
SK-OV-3 = test system: SK-OV-3
SN12C = test system: SN12C
SNB-75 = test system: SNB-75
SR = test system: SR
SW-620 = test system: SW-620
T47D = test system: T47D
TK-10 = test system: TK-10
U-251 = test system: U-251
UACC-257 = test system: UACC-257
UACC-62 = test system: UACC-62
UO-31 = test system: UO-31

O=C(NCCc1ccccc1)[C@H]1CCCC[C@@H]1CCO
GI50 (786-0): > 100 µM (inactive) | GI50 (A498): > 100 µM (inactive) | GI50 (A549): > 100 µM (inactive) | GI50 (ACHN): > 100 µM (inactive) | GI50 (BT-549): > 100 µM (inactive) | GI50 (CAKI-1): > 100 µM (inactive) | GI50 (CCRF-CEM): > 100 µM (inactive) | GI50 (COLO 205): > 100 µM (inactive) | GI50 (DU-145): > 100 µM (inactive) | GI50 (EKVX): > 100 µM (inactive) | GI50 (HCC 2998): > 100 µM (inactive) | GI50 (HCT-116): > 100 µM (inactive) | GI50 (HCT-15): > 100 µM | GI50 (HL-60): > 100 µM (inactive) | GI50 (HOP-62): > 100 µM (inactive) | GI50 (HOP-92): > 100 µM (inactive) | GI50 (HT-29): > 100 µM (inactive) | GI50 (Hs-578T): > 100 µM (inactive) | GI50 (IGROV-1): > 100 µM (inactive) | GI50 (K562): > 100 µM (inactive) | GI50 (KM12): > 100 µM (inactive) | GI50 (LOX IMVI): > 100 µM (inactive) | GI50 (M14): > 100 µM (inactive) | GI50 (MCF7): > 100 µM (inactive) | GI50 (MDA-MB-231): > 100 µM (inactive) | GI50 (MDA-MB-435): > 100 µM (inactive) | GI50 (MDA-N): > 100 µM (inactive) | GI50 (MOLT-4): > 100 µM (inactive) | GI50 (NCI-H226): > 100 µM (inactive) | GI50 (NCI-H23): > 100 µM (inactive) | GI50 (NCI-H460): > 100 µM (inactive) | GI50 (NCI-H522): > 100 µM (inactive) | GI50 (NCI/ADR-RES): > 100 µM (inactive) | GI50 (OVCAR-3): > 100 µM (inactive) | GI50 (OVCAR-4): > 100 µM (inactive) | GI50 (OVCAR-5): > 100 µM (inactive) | GI50 (OVCAR-8): > 100 µM (inactive) | GI50 (PC-3): > 100 µM (inactive) | GI50 (RPMI-8226): > 100 µM (inactive) | GI50 (RXF 393): > 100 µM (inactive) | GI50 (SF-268): > 100 µM (inactive) | GI50 (SF-295): > 100 µM (inactive) | GI50 (SF-539): > 100 µM (inactive) | GI50 (SK-MEL-28): > 100 µM (inactive) | GI50 (SK-MEL-2): > 100 µM (inactive) | GI50 (SK-MEL-5): > 100 µM (inactive) | GI50 (SK-OV-3): > 100 µM (inactive) | GI50 (SN12C): > 100 µM (inactive) | GI50 (SNB-75): > 100 µM (inactive) | GI50 (SR): > 100 µM (inactive) | GI50 (SW-620): > 100 µM (inactive) | GI50 (T47D): > 100 µM (inactive) | GI50 (TK-10): > 100 µM (inactive) | GI50 (U-251): > 100 µM (inactive) | GI50 (UACC-257): > 100 µM (inactive) | GI50 (UACC-62): > 100 µM (inactive) | GI50 (UO-31): > 100 µM (inactive)
